Measurements from PubChem BioAssay AID788 (SRMLSC, 2007).
Active and inactive are the calls of the source. No rule for the calls is given here.

What was measured:
[1] = vps1Δ apl2Δ double mutant yeast growth inhibitors – S. cerevisiae, background strain comparison, post-Golgi transport modulator project, dose response (AID 788); conditions: S. cerevisiae vps1Δ apl2Δ growth inhibition, dose response; at 25 µM (top of the series)
[2] = system: S. cerevisiae wild-type background strain growth inhibition; assay: as above; conditions: S. cerevisiae vps1Δ apl2Δ growth inhibition, dose response; measured here: wild-type background strain growth
[3] = system: S. cerevisiae vps1Δ apl2Δ growth inhibition, dose response; assay: as above

Structure (SMILES) | growth inhibition [1] | IC50 [2] [µM] | IC50 [3]
O=C(Nc1nnc(-c2cccs2)o1)c1cccc(C(F)(F)F)c1 | 36.6% (inactive) |  | 
CCOCCCNC(=O)c1cc2sc(Cl)cc2n1CC |  | > 10 | > 10 µM (inactive)
CC(=O)NC1C(c2nc3ccccc3s2)=C(c2ccccc2)C(=O)N1c1ccc(C)cc1 (centres undefined) |  | 1.92 | 2.62 µM (inactive)
O=C(c1ccc(Cl)cc1Cl)N1CCC(c2nc3c(nnn3Cc3ccco3)c(=O)[nH]2)CC1 |  | > 10 | > 10 µM (inactive)
CCCn1nc([N+](=O)[O-])c(C(C#N)c2nc3ccccc3s2)c(Cl)c1=O (centres undefined) |  | 2.16 | 5.34 µM (inactive)
CC(=O)Nc1ccccc1NS(=O)(=O)c1ccc(Cl)cc1 |  | > 10 | > 10 µM (inactive)
CCn1c(-c2c[nH]c3ccccc23)n[nH]c1=S |  | > 10 | > 10 µM (inactive)
CCN1C(=O)c2ccc(C(=O)NCc3ccccc3)cc2C1=O |  | > 10 | > 10 µM (inactive)
O=C(C1CCN(S(=O)(=O)c2cccs2)CC1)N1CCCCCC1 |  | > 10 | > 10 µM (inactive)
COc1cc2[nH]c(=S)n(CCCN3CCOCC3)c(=O)c2cc1OC |  | > 10 | > 10 µM (inactive)
O=C(Nc1cccc(Cl)c1)N1CCN(C/C=C/c2ccccc2)CC1 |  | > 10 | > 10 µM (inactive)
Cc1ccc2cc(CN(CCO)Cc3nnnn3Cc3ccc(F)cc3)c(=O)[nH]c2c1 |  | > 10 | > 10 µM (inactive)
CCOc1ccc(NC(=O)C/C(N)=N/O)cc1 |  | > 10 | > 10 µM (inactive)
CCCCC(c1nnnn1Cc1ccco1)N1CCN(c2nc3ccccc3s2)CC1 (centres undefined) |  | 3.9 | 19.7 µM (inactive)
CCN(CC)c1ccc(-c2nc3cnccc3n2C)cc1 |  | > 10 | > 10 µM (inactive)
O=C(Nc1cc(C(F)(F)F)ccc1-n1cncn1)c1ccc(-c2ccccc2)cc1 |  | > 10 | > 10 µM (inactive)
O=c1cccc2n1CC1CC2CN(S(=O)(=O)c2ccccc2)C1 (centres undefined) |  | > 10 | > 10 µM (inactive)
CCN(CC)C(=O)C1CCN(Cc2ccc(Br)cc2)CC1 |  | > 10 | > 10 µM (inactive)
CCOc1cccc(C(=O)Nc2cccnc2)c1 |  | > 10 | > 10 µM (inactive)
COc1ccccc1N1CCN(C2CCN(C(=O)c3cc(OC)c(OC)c(OC)c3)CC2)CC1 |  | > 10 | > 10 µM (inactive)
CN1CCN(CCCNC(=O)Cn2nc(-c3ccccc3)ccc2=O)CC1 |  | > 10 | > 10 µM (inactive)
CCCC(=O)Nc1ccc(Cl)c(NC(=O)c2cccnc2Cl)c1 |  | > 10 | > 10 µM (inactive)
CCN(CC)c1ccc(CN2CC=C(c3ccc(F)cc3)CC2)cc1 |  | 25.8 | 9.87 µM
OC(COCc1ccc(Cl)cc1)CN1CC=C(c2ccccc2)CC1 (centres undefined) |  | 20.8 | 4.71 µM
CCOC(=O)NC(Nc1ccc(S(N)(=O)=O)cc1)(C(=O)OCC)C(F)(F)F (centres undefined) |  | > 10 | > 10 µM (inactive)
OC(c1ccc(Cl)cc1Cl)C(Cc1cccnc1)n1cncn1 (centres undefined) |  | > 10 | > 10 µM (inactive)
CCOC(=O)C(C)Oc1ccc2c(C)cc(=O)oc2c1C(C)=O (centres undefined) |  | > 10 | > 10 µM (inactive)

Structure (SMILES) | growth inhibition [1] | IC50 [2] [µM] | IC50 [3]
C=CCc1ccccc1OCC(O)CN1CCN(Cc2ccc3c(c2)OCO3)CC1 (centres undefined) |  | > 10 | 4.4 µM
CC1CCCCC1NC(=O)CSc1nnnn1-c1ccccc1 (centres undefined) |  | > 10 | > 10 µM (inactive)
CCC(=O)N(CCO)Cc1cc2ccc(C)c(C)c2[nH]c1=O |  | > 10 | > 10 µM (inactive)
N#CC1=C(N)C(C#N)(C#N)C(c2cccnc2)C2CC(c3ccccc3)CC=C12 (centres undefined) |  | 2.97 | 2.89 µM
Cc1cc(C)nc(NC(=O)CSc2nn(C)c(=S)s2)n1 |  | > 10 | > 10 µM (inactive)
Cc1ccc(C2N(c3ccc(Cl)c(Cl)c3)C(=O)C3CCCN32)o1 (centres undefined) |  | > 10 | > 10 µM (inactive)
COc1ccc(/C=C2\SC(=S)N(NC(=O)c3csc4c3CCCC4)C2=O)cc1 |  | > 10 | > 10 µM (inactive)
O=C(Cn1nnc(-c2ccc(S(=O)(=O)N3CCCC3)cc2)n1)NCC1CCCO1 (centres undefined) |  | > 10 | > 10 µM (inactive)
Cc1cc(=O)[nH]c(SCC(=O)c2ccc(C)c(C)c2)n1 |  | 2.31 | 2.13 µM
O=C(Nc1nnc(-c2ccccc2)o1)c1ccc(Cl)cc1 |  | 0.65 | 2.46 µM (inactive)
O=C(CCl)c1ccc(Cc2ncc(C(F)(F)F)cc2Cl)s1 |  | 8.68 | 16.2 µM (inactive)
COc1ccccc1N1CCN(CC(O)c2ccc3cc[nH]c3c2)CC1 (centres undefined) |  | > 10 | > 10 µM (inactive)
Cc1cc(C(C)(C)C)ccc1OCCN1CCCC1 |  | > 10 | 17.1 µM
CCOC(=O)COc1ccccc1C1Nc2ccccc2C(=O)N1c1cccc(Cl)c1 (centres undefined) |  | > 10 | 19.3 µM
c1ccc(COc2ccc(CN3CCN(c4ccccn4)CC3)cc2)cc1 |  | > 10 | > 10 µM (inactive)
Cc1ccc2nc(C)cc(OCC(=O)O)c2c1 |  | > 10 | > 10 µM (inactive)
Cc1cc(C)nc(N/N=C/C(Cl)=C/c2ccccc2)n1 |  | > 10 | > 10 µM (inactive)
CCN(CC)CCn1nc(C)nc1-c1ccccc1O |  | > 10 | > 10 µM (inactive)
COc1cccc(NC(=O)c2ccc(CN3CCN(c4ccccc4)CC3)cc2)c1 |  | > 10 | > 10 µM (inactive)
O=C(O)c1ccc(N2CCCCC2)cc1 |  | > 10 | > 10 µM (inactive)
Cc1cccc(CS(=O)(=O)Cc2ccc(C(=O)NCCCN3CCCC3)o2)c1 |  | > 10 | > 10 µM (inactive)
Clc1ccc(-c2n[nH]c3c2CCC3)c(Cl)c1 |  | 0.518 | 1.04 µM (inactive)
Cc1c(Cc2ccccc2)c(=O)oc2c(C)c(OCc3nn[nH]n3)ccc12 |  | > 10 | > 10 µM (inactive)
N#CC1=C2SCC(O)(c3ccccc3)N2C(=O)CC1c1ccccc1 (centres undefined) |  | > 10 | > 10 µM (inactive)
Cc1ccc(C)c(C(=O)NCc2ccncc2)c1 |  | > 10 | > 10 µM (inactive)
COc1cccc(NC(=O)C2CCCN2C(=O)OCc2ccccc2)c1 (centres undefined) |  | > 10 | > 10 µM (inactive)
COCCNc1cc(C)nc2c3c(C)cc(C)nc3nn12 |  | > 10 | > 10 µM (inactive)

Structure (SMILES) | growth inhibition [1] | IC50 [2] [µM] | IC50 [3]
Cn1nnc2cc(C(=O)Nc3cccnc3)ccc21 |  | > 10 | > 10 µM (inactive)
COc1cccc(OCCCCN2CC(C)OC(C)C2)c1 (centres undefined) |  | > 10 | 4.38 µM
O=C(c1ccco1)N1CCN(c2ncnc3c2[nH]c2ccccc23)CC1 |  | > 10 | > 10 µM (inactive)
O=C(N/N=C/c1ccc(OC(=O)c2ccccc2)cc1)c1ccc(CN2CCOCC2)cc1 |  | > 10 | > 10 µM (inactive)
Cc1cc(OCC(F)(F)C(F)(F)C(F)(F)C(F)(F)C(F)(F)C(F)F)nc(N)n1 |  | > 10 | > 10 µM (inactive)
Cc1cccc2cc(C#N)c(NCCCn3ccnc3)nc12 |  | > 10 | > 10 µM (inactive)
COc1ccc(C(=O)Nc2ccc(Cl)cc2C(=O)N2CCCC(C)C2)cc1 (centres undefined) |  | > 10 | > 10 µM (inactive)
CCC(OC(=O)C(NC(=O)c1ccccc1)c1ccccc1)C(=O)Nc1cc(C)on1 (centres undefined) |  | > 10 | > 10 µM (inactive)
COc1ccc(N2CCN(C(=O)CCNS(=O)(=O)c3ccc(Br)s3)CC2)cc1 |  | > 10 | > 10 µM (inactive)
COc1ccc(-c2cc(N)n(S(=O)(=O)c3c(F)c(F)c(F)c(F)c3F)n2)cc1OC |  | 1.08 | 2.5 µM (inactive)
O=C(NCc1ccc2c(c1)OCO2)c1ccc(-n2cnnn2)cc1 |  | > 10 | > 10 µM (inactive)
Cc1cc(N2C(=O)C3CCCN3C2c2sccc2C)no1 (centres undefined) |  | > 10 | > 10 µM (inactive)
COCCNC(=O)C(c1ccc(F)cc1)N(CC1CCCO1)C(=O)CCC(=O)Nc1ccccn1 (centres undefined) |  | > 10 | > 10 µM (inactive)
Cc1ccc(-n2cc3c(-c4cccc(Br)c4)nnc(C)c3n2)cc1 |  | 13.5 | 1.94 µM
CCN(CC)c1nc2cc(OC)ccc2cc1C#N |  | > 10 | > 10 µM (inactive)
O=C(NCc1ccco1)C(c1cccs1)N(C(=O)Cc1cccs1)c1ccccc1 (centres undefined) |  | > 10 | > 10 µM (inactive)
Cc1ccc(NS(=O)(=O)c2cc(C(=O)N3CCOCC3)ccc2C)cc1 |  | > 10 | > 10 µM (inactive)
Cc1ccc(S(=O)(=O)N2CC3CC(C2)c2cccc(=O)n2C3)cc1 (centres undefined) |  | > 10 | > 10 µM (inactive)
O=C(NCCSCc1ccc(Cl)cc1Cl)c1ccc(CN2CCOCC2)cc1 |  | > 10 | 13.5 µM
CCOC(=O)c1c(CN2CCCCC2C)oc2ccc(OC)cc12 (centres undefined) |  | > 10 | > 10 µM (inactive)
O=C1CC(N2CCN(c3ccc(Cl)c(Cl)c3)CC2)C(=O)N1 (centres undefined) |  | > 10 | > 10 µM (inactive)
O=C1NC2(Nc3ccccc31)C(=O)Nc1ccccc12 (centres undefined) |  | > 10 | > 10 µM (inactive)
Cc1nc(NC(=O)c2ccccc2)sc1-c1csc(NCc2ccccc2)n1 |  | > 10 | 3.54 µM
CC1CCCCN1CCNC(=O)Cn1nc(-c2ccccc2)ccc1=O (centres undefined) |  | > 10 | > 10 µM (inactive)
O=C(NCCc1ccccc1)C1CCN(S(=O)(=O)N2CCCC2)CC1 |  | > 10 | > 10 µM (inactive)
O=C(NCc1ccc2c(c1)OCO2)c1ccc(CS(=O)(=O)c2cccc(C(F)(F)F)c2)o1 |  | > 10 | > 10 µM (inactive)
